For 58 compounds, activity change, negative = toxicity results are on record in PubChem BioAssay AID652280 (Broad Institute, 2013).

The nature of the assay: mouse embryonic fibroblast toxicity – cell-based, plate reader, dry powder, set 2, cytotoxicity control, dose response (AID 652280). As to conditions: NIH/3T3 mouse fibroblast toxicity, plate reader.

Inconclusive results are not listed. Active and inactive are the calls of the source. No rule for the calls is given here.

For the compound `CN(C)C(=O)c1cccc(-c2ccc([C@@H]3[C@H](CO)N4CCCCN(C(=O)C5CCC5)C[C@@H]34)cc2)c1`, the activity change, negative = toxicity (at 16 µM (top of the series)) is -3.74% (inactive).
`COc1ccc(CN(C)C[C@@H]2Oc3c(NC(=O)c4ccncc4)cccc3C(=O)N([C@@H](C)CO)C[C@H]2C)cc1`: the activity change, negative = toxicity (at 16 µM (top of the series)) was -22.2% (inactive).
Turning to `CN(C)CC#Cc1cccc(-c2nc(C(=O)N3CCN(C)CC3)cc3c2[C@H](CCO)N(S(=O)C(C)(C)C)C3)c1` (stereo partly drawn), for the setting “at 16 µM (top of the series)”, the activity change, negative = toxicity was 16.4% (inactive).
In the case of `CN(C)CC#Cc1cccc(-c2nc(C(=O)N3CCN(C)CC3)cc3c2[C@@H](CCO)N(S(=O)C(C)(C)C)C3)c1` (stereo partly drawn), the activity change, negative = toxicity (at 16 µM (top of the series)) is 18.9% (inactive).
The same measure, in the same setting: with `Cc1cccc(-c2ccc([C@H]3[C@H](CO)N4CCCCN(C(=O)c5cccnc5)C[C@@H]34)cc2)c1` the figure was -10.6% (inactive); with `CC(C)N1C[C@H](CN(C)Cc2ccc(Cl)cc2)Oc2c(NC(=O)c3ccncc3)cccc2C1=O`, -35.4% (inactive).
For `CCC(=O)N1CC[C@@H]2[C@H]1c1cc(Br)ccc1N(C)[C@@H]2CO`, where the note is “at 16 µM (top of the series)”, the activity change, negative = toxicity was -1.86% (inactive).
On to `CC(C)N1C[C@@H](CN(C)Cc2ccc(Cl)cc2)Oc2c(NC(=O)c3ccncc3)cccc2C1=O`, for which, for the setting “at 16 µM (top of the series)”, the activity change, negative = toxicity is -18% (inactive).
Regarding `CC(C)N1C[C@@H](CNCc2ccc(Oc3ccccc3)cc2)Oc2c(NC(=O)c3ccncc3)cccc2C1=O`, where the note is “at 16 µM (top of the series)”, the activity change, negative = toxicity is -29.5% (inactive).
For `CC(C)N1C[C@H](C)[C@@H](CN(C)Cc2ccc(Cl)cc2)Oc2c(cccc2-c2nnn(-c3ccncc3)n2)C1=O`, the activity change, negative = toxicity (at 16 µM (top of the series)) was 65.7% (inactive).
`CN1CCCCN2[C@@H](CO)[C@H](c3ccc(Br)cc3)[C@@H]2C1`: the activity change, negative = toxicity (at 16 µM (top of the series)) was -2.42% (inactive).
The same measure, in the same setting: to `CC(C)N1C[C@@H](CN(C)Cc2ccc(Cl)cc2)Oc2c(C(=O)Nc3ccncc3)cccc2C1=O` belongs -18.4% (inactive); to `CC(C)N1C[C@@H](CN(C)Cc2ccc(Cl)cc2)Oc2c(C(=O)Nc3ccnnc3)cccc2C1=O`, -4.49% (inactive); to `CC(C)N1C[C@@H](CN(C)CCc2ccc(Cl)cc2)Oc2c(NC(=O)c3ccncc3)cccc2C1=O`, -32% (inactive).
Regarding `C[C@@H]1CN([C@@H](C)CO)C(=O)c2cc(-c3cncnc3)cnc2O[C@H]1CN(C)Cc1ccc(Oc2ccccc2)cc1`, under “at 16 µM (top of the series)”, the activity change, negative = toxicity was -26.5% (inactive).
Still for that read-out and setting: with `C[C@H]1CN([C@@H](C)CO)C(=O)c2cccc(NC(=O)c3ccncc3)c2O[C@@H]1CN(C)Cc1ccccc1Cl` the figure was -7.97% (inactive); with `COCCNC(=O)c1cc2c(c(-c3cccc(C#CCN(C)C)c3)n1)[C@H](CCO)N(S(=O)C(C)(C)C)C2` (stereo partly drawn), 20.8% (inactive); with `CN(C)C(=O)c1cccc(-c2ccc([C@H]3[C@H]4CN(C(=O)C5CCC5)CCCCN4[C@H]3CO)cc2)c1`, 24.3% (inactive).
In the case of `C[C@H]1CN([C@@H](C)CO)C(=O)c2cccc(NC(=O)c3ccncc3)c2O[C@@H]1CN(C)Cc1ccc(Cl)c(F)c1`, for the setting “at 16 µM (top of the series)”, the activity change, negative = toxicity is -25.3% (inactive).
In the case of `CC(C)N1C[C@H](C)[C@@H](CN(C)Cc2ccc(Cl)c(Cl)c2)Oc2c(cccc2-c2nn[nH]n2)C1=O`, the activity change, negative = toxicity (at 16 µM (top of the series)) was -0.771% (inactive).
With `CC(C)N1CC2(CN(Cc3ccc(Cl)cc3)C2)Oc2c(NC(=O)c3ccncc3)cccc2C1=O`, the activity change, negative = toxicity (at 16 µM (top of the series)) is -2.46% (inactive).
As to `C[C@H]1CN([C@@H](C)CO)C(=O)c2cccc(NC(=O)c3ccncc3)c2O[C@@H]1CN(C)Cc1ccc(F)cc1Cl`, the activity change, negative = toxicity (at 16 µM (top of the series)) is -10.1% (inactive).
Consider `C[C@H]1CN([C@@H](C)CO)C(=O)c2cccc(NC(=O)c3ccncc3)c2O[C@@H]1CN(C)Cc1ccccc1C(F)(F)F`, for which the activity change, negative = toxicity (at 16 µM (top of the series)) is 14.1% (inactive).
As for `CN(C)CC#Cc1cccc(-c2nc(C(=O)N3CCN(Cc4ccccc4)CC3)cc3c2[C@H](CCO)N(S(=O)C(C)(C)C)C3)c1` (stereo partly drawn), the activity change, negative = toxicity (at 16 µM (top of the series)) was -3.09% (inactive).
With `C[C@H]1CN([C@@H](C)CO)C(=O)c2cccc(NC(=O)c3ccncc3)c2O[C@@H]1CN(C)Cc1ccc(F)c(Cl)c1`, the activity change, negative = toxicity (at 16 µM (top of the series)) was -32.5% (inactive).
With `CC(C)N1CC[C@@H](CNC(=O)OC(C)(C)C)Oc2c(NC(=O)c3ccncc3)cccc2C1=O`, the activity change, negative = toxicity (at 16 µM (top of the series)) is -8.28% (inactive).
With `CC(C)(C)S(=O)N1Cc2cc(C(=O)NCc3ccc4c(c3)OCO4)nc(-c3cccc(-c4cc5ccccc5o4)c3)c2[C@H]1CCO` (stereo partly drawn), the activity change, negative = toxicity (at 16 µM (top of the series)) is -5.85% (inactive).
The same measure, in the same setting: to `CC(C)N1C[C@H](C)[C@@H](CN(C)Cc2ccc(Cl)cc2)Oc2c(C(=O)Nc3ccncc3)cccc2C1=O` belongs -7.6% (inactive); to `COc1ccccc1CN(C)C[C@H]1Oc2c(NC(=O)c3ccncc3)cccc2C(=O)N([C@@H](C)CO)C[C@@H]1C`, -28.8% (inactive); to `C[C@@H]1CN([C@@H](C)CO)C(=O)c2cccc(NC(=O)c3ccncc3)c2O[C@@H]1CN(C)Cc1ccc(Oc2ccccc2)cc1`, 15.4% (inactive).
Turning to `Cc1cccc(-c2ccc([C@H]3[C@H](CO)N4CCCCN(C(=O)c5ccncc5)C[C@@H]34)cc2)c1`, the activity change, negative = toxicity (at 16 µM (top of the series)) was -19.7% (inactive).
As to `CN(C)C(=O)c1cccc(-c2ccc([C@H]3[C@H](CO)N4CCCCN(Cc5cccnc5)C[C@@H]34)cc2)c1`, the activity change, negative = toxicity (at 16 µM (top of the series)) was -3% (inactive).
For `C[C@@H]1CN([C@@H](C)CO)C(=O)c2cccc(NC(=O)c3ccncc3)c2O[C@H]1CN(C)C`, the activity change, negative = toxicity (at 16 µM (top of the series)) was -10.2% (inactive).
For the compound `CCOC(=O)c1cc2c(c(-c3cccc(C#CCN(C)C)c3)n1)[C@H](CCO)N(S(=O)C(C)(C)C)C2` (stereo partly drawn), for the setting “at 16 µM (top of the series)”, the activity change, negative = toxicity was -9.39% (inactive).
As for `CN(C)CC#Cc1cccc(-c2nc(C(=O)NCc3ccc(Oc4ccccc4)cc3)cc3c2[C@H](CCO)N(S(=O)C(C)(C)C)C3)c1` (stereo partly drawn), the activity change, negative = toxicity (at 16 µM (top of the series)) is 63.9% (inactive).
Take `C[C@@H]1CCCCO[C@H](CN(C)C(=O)Nc2cccc3ccccc23)[C@@H](C)CN([C@H](C)CO)C(=O)c2cc(N(C)C)ccc2O1`: the activity change, negative = toxicity (at 16 µM (top of the series)) is -0.649% (inactive).
On to `CC(C)N1CC2(CN(Cc3ccc(F)cc3)C2)Oc2c(NC(=O)c3ccncc3)cccc2C1=O`, for which, for the setting “at 16 µM (top of the series)”, the activity change, negative = toxicity was -0.418% (inactive).
Turning to `CC(C)N1CC2(CN(Cc3ccc(-c4cccnc4)cc3)C2)Oc2c(NC(=O)c3ccncc3)cccc2C1=O`, the activity change, negative = toxicity (at 16 µM (top of the series)) is -22.8% (inactive).
For `CN(C)C(=O)c1ccc(-c2ccc([C@H]3[C@H](CO)N4CCCCN(C(=O)C5CCCC5)C[C@@H]34)cc2)cc1`, the activity change, negative = toxicity (at 16 µM (top of the series)) was -15.7% (inactive).
As for `O=C(CN1CCOCC1)N1CCCCN2[C@@H](CO)[C@H](c3ccc(-c4ccccc4)cc3)[C@@H]2C1`, the activity change, negative = toxicity (at 16 µM (top of the series)) is -1.37% (inactive).
On to `CC(C)N1C(=O)c2cccc(NC(=O)c3ccncc3)c2O[C@H](CN(C)Cc2ccc(Cl)cc2)[C@H]1C`, for which the activity change, negative = toxicity (at 16 µM (top of the series)) is -1.14% (inactive).
As to `CC(C)N1C[C@@H](CN(C)Cc2ccc(Cl)cc2)Oc2c(NC(=O)c3ccnnc3)cccc2C1=O`, the activity change, negative = toxicity (at 16 µM (top of the series)) is 2.62% (inactive).
As for `CN(C)C(=O)c1cccc(-c2ccc([C@H]3[C@@H](CO)N4CCCCN(C(=O)C5CCCC5)C[C@@H]34)cc2)c1`, the activity change, negative = toxicity (at 16 µM (top of the series)) is 28.8% (inactive).
For the compound `CC(C)N1C[C@@H](C)[C@H](CN(C)C(=O)OC(C)(C)C)Oc2c(C(=O)O)cccc2C1=O`, the activity change, negative = toxicity (at 16 µM (top of the series)) was 14.1% (inactive).
With `CN(C)C(=O)c1ccc(-c2ccc([C@H]3[C@H](CO)N4CCCCN(Cc5cncnc5)C[C@@H]34)cc2)cc1`, the activity change, negative = toxicity (at 16 µM (top of the series)) is 10.1% (inactive).
Turning to `CN(C)CC#Cc1cccc(-c2nc(C(=O)NCc3ccc4c(c3)OCO4)cc3c2[C@H](CCO)N(S(=O)C(C)(C)C)C3)c1` (stereo partly drawn), the activity change, negative = toxicity (at 16 µM (top of the series)) was 6.62% (inactive).
On to `C[C@H]1CN([C@@H](C)CO)C(=O)c2cccc(NC(=O)c3ccncc3)c2O[C@@H]1CN(C)Cc1cc(Cl)cc(Cl)c1`, for which the activity change, negative = toxicity (at 16 µM (top of the series)) was 15% (inactive).
The same measure, in the same setting: with `C[C@H]1CN([C@@H](C)CO)C(=O)c2cccc(NC(=O)c3ccncc3)c2O[C@@H]1CN(C)Cc1cccc(C(F)(F)F)c1` the figure was -10.7% (inactive).
With `CCC(=O)N1CC[C@@H]2[C@H]1c1cc(-c3ccccc3)ccc1N(C)[C@@H]2CO`, the activity change, negative = toxicity (at 16 µM (top of the series)) was -26.5% (inactive).
Turning to `Cc1ccc(S(=O)(=O)N(C)C[C@H]2OCCCC[C@@H](C)Oc3ccc(N(C)C)cc3C(=O)N([C@H](C)CO)C[C@@H]2C)cc1`, the activity change, negative = toxicity (at 18 µM (top of the series)) is 25.8% (inactive).
With `CC(C)N1CC2(CN(Cc3ccccc3)C2)Oc2c(NC(=O)c3ccncc3)cccc2C1=O`, the activity change, negative = toxicity (at 16 µM (top of the series)) is -2.24% (inactive).
As to `CC(C)N1C[C@H](CNCc2ccc(Oc3ccccc3)cc2)Oc2c(NC(=O)c3ccncc3)cccc2C1=O`, the activity change, negative = toxicity (at 16 µM (top of the series)) is 5.88% (inactive).
As to `C[C@@H]1CCCCO[C@H](CN(C)Cc2ccc(Cl)c(Cl)c2)[C@@H](C)CN([C@H](C)CO)C(=O)c2cc(N(C)C)ccc2O1`, for the setting “at 16 µM (top of the series)”, the activity change, negative = toxicity is 82.1% (inactive).
On to `C[C@H]1CN([C@@H](C)CO)C(=O)c2cccc(NC(=O)c3ccncc3)c2O[C@@H]1CN(C)Cc1ccc(F)c(F)c1`, for which, where the note is “at 16 µM (top of the series)”, the activity change, negative = toxicity was -6.64% (inactive).
On to `COc1cccc(-c2ccc([C@H]3[C@H](CO)N4CCCCN(C(=O)Cc5ccncc5)C[C@@H]34)cc2)c1`, for which the activity change, negative = toxicity (at 16 µM (top of the series)) is -1.62% (inactive).
The same measure, in the same setting: with `CC(C)N1C[C@@H](C)[C@H](CN(C)Cc2ccc(OCCCC(F)(F)C(F)(F)C(F)(F)C(F)(F)C(F)(F)C(F)(F)C(F)(F)C(F)(F)F)cc2)Oc2c(NC(=O)c3ccncc3)cccc2C1=O` the figure was 22.1% (inactive); with `C[C@H]1CN([C@@H](C)CO)C(=O)c2cccc(NC(=O)c3ccncc3)c2O[C@@H]1CN(C)Cc1ccc(Oc2ccccc2)cc1`, 12.9% (inactive).
Turning to `CC(C)N1C[C@@H](C)[C@H](CN(C)Cc2ccc(Oc3ccccc3)cc2)Oc2c(C(=O)O)cccc2C1=O`, the activity change, negative = toxicity (at 16 µM (top of the series)) is 9.6% (inactive).
